Measured values as given in patent US4806532A, “Inhibition of epithelial phosphate transport” (Mayo Foundation for Medical Education and Research, priority 1985, dated 1989).
Structures can show the parent of a compound that is named as a salt.

Legend:
Na-Pi cotransporter = biological target: T1, Na-Pi cotransporter (Mus musculus, UniProt Q60825); assay: Na+-gradient-dependent 32Pi uptake by renal BBMV, mouse; assay type: biochemical
T1 construct: were prepared from renal cortices of mongrel dogs, albino mice and New Zealand albino rabbits; from tissue; host or cells: albino mouse renal cortex, brush border membrane vesicles
T1 sequence (Q60825 1-637): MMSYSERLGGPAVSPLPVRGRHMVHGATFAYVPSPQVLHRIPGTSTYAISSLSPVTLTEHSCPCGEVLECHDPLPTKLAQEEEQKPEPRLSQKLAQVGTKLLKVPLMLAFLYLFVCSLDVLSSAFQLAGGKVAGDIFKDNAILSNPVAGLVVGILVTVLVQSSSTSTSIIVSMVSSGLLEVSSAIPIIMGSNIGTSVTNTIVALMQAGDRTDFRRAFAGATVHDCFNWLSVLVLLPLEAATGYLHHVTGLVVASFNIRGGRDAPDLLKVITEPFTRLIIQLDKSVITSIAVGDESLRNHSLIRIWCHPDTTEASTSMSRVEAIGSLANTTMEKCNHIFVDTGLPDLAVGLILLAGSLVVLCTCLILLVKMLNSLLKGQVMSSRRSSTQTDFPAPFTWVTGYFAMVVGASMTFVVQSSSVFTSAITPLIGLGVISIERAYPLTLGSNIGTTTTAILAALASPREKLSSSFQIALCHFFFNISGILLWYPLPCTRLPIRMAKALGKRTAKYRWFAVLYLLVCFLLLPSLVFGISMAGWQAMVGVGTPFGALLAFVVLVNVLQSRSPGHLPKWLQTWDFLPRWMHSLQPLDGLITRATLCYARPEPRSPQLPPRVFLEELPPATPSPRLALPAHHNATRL
Procedure: (§1) The brush border membrane vesicles (BBMV) were prepared from renal cortical tissue of adult male Sprague-Dawley rats of an average body weight of about 220 grams. Rats were fed ad libitum standard rat chow containing 0.7% Pi and had free access to distilled water. Rats were sacrificed under anesthesia and dissected renal cortical tissue was used for preparation of BBMV fraction by the divalent cation-precipitation procedure, employed and described in detail in J. Clin. Invest., 67, 1347 (1981) and J. Biol. Chem., 258, 5695 (1983), with the following modifications: (a) MgCl2 instead of CaCl2 was added to crude homogenate (final concentration 10 mM MgCl2) to precipitate membranes other than BBMV; (b) in the final step, BBMV were washed and equilibrated in a medium of pH=7.5, instead of pH=8.5. The enrichment and specific activities of typical BBM enzymes alkaline phosphatase (APases), γ-glutyamyl transferase (γ-GTT), leucineaminopeptidase (LAP) and maltase with use of these modifications were similar as in BBMV fractions prepared in our previous studies. As a final step in the preparative procedure, the BBMV fraction was washed and resuspended in a medium containing 300 mM mannitol and 5 mM Tris-HEPES adjusted to pH=t.5, referred to as "MTH-medium," unless specified otherwise. The analogous BBMV fractions, using the same procedure, were prepared from renal cortices of mongrel dogs, albino mice and New Zealand albino rabbits.
The BBMV uptake of ^32 Pi, D-[^3 H]-glucose, L-[^3 H]-proline and ^22 Na^+ was measured by means of a rapid filtration technique, as described in J. Clin. Invest., 67, 1347 (1981) and Am. J. Physiol., 246, F133-F139 (1984). Also, unless specified otherwise, the medium for the solute uptake assay consisted of following compounds (in final concentrations): 100 mM mannitol, 100 mM NaCl (or 100 mM KC1) and 5 mM Tris-HEPES (pH=7.5) and eitehr 0.1 mM K2 H^32 PO4, or 0.05 mM D-[^3 H]-glucose, or 0.025 mM L-[^3 H]-proline. IN the ^22 Na^+ uptake studies, the assay medium contained 100 mM ^22 NaCl (^22 NaCl about […] per tube), 100 mM mannitol and 5 mM Tris-HEPES (pH 7.5).
In most experiments, the Na^+ -gradient-dependent ^32 Pi uptake in the concentrative "uphill" phase was measured at 20 seconds period. Since Na^+ -independent Pi uptake in this time period was quantitatively minor component (<5%) of the Na^+ -gradient-dependent Pi uptake, it was not routinely subtracted.

[1] = test system: D-[^3 H]-glucose uptake by BBMV; assay: Na+-gradient-dependent uptake of D-[3H]-glucose by renal BBMV; assay type: biochemical, rat; conditions: 1 mM TPFA; mean ± SEM, n=4; control 66±15
Procedure: as §1, with “As a final step in the preparative procedure, the BBMV fraction was washed and resuspended in a medium containing 300 mM mannitol and 5 mM Tris-HEPES adjusted to pH=t.5, referred to as "MTH-medium," unless specified otherwise. The analogous BBMV fractions, using the same procedure, were prepared from renal cortices of mongrel dogs, albino mice and New Zealand albino rabbits.” left out
The BBMV uptake of ^32 Pi, D-[^3 H]-glucose, L-[^3 H]-proline and ^22 Na^+ was measured by means of a rapid filtration technique, as described in J. Clin. Invest., 67, 1347 (1981) and Am. […]

[2] = test system: thyroparathyroidectomized (TPTX) rats; assay: Urinary excretion of Pi and other electrolytes after TPFA in vivo; set-up: species or system rat; Phosphate excretion: unit not given here
Procedure: Surgically thyroparathyroidectomized (TPTX) rats of 180-220 g body wt (Johnson Laboratories, Chicago, IL) were placed in metabolic cages and were fed 15 g of the low phosphate (P =0.07%) diet (ICN, Cleveland, OH) and 25 ml distilled water per day prior to and throughout the study (J. Clin. Invest. 67, 1347 (1981)). The animals were weighed daily. Urine samples (24-hour period) were collected each day for determination of urine volue, creatinine, Pi, Ca^++, Na^+ and K^+. After stabilization of rats on the low phosphate diet for 4 days, the "experimental" group of rats were injected with TPFA (500 mg/kg b wt) intraperitoneally, divided in two daily doses, while the "control" rats received the vehicle only. TPFA for i.p. injection was dissolved in distilled water and the control animals were injected with the same volume of NaCl solution containing the equimolar amount of Na^+. When appropriate, the results were evaluated statistically using student's t-test for either group or paired comparisons. Values of P >0.05 were considered nonsignificant (NS).

(Na-K)ATPase = biological target: T2, (Na-K)ATPase (Rattus norvegicus, UniProt P06685); assay: Effect on BaLM enzyme (Na-K)ATPase (data not shown); assay type: biochemical
T2 construct: from tissue; host or cells: basolateral membrane, kidney (tissue and rat inferred)

[3] = in vivo; cited from earlier work
[4] = Day 1 (baseline), experimental group, TPTX rats
[5] = Day 2, TPFA 500 mg/kg per day i.p. on day 2 and day 3, TPTX rats
[6] = Day 3, TPFA 500 mg/kg per day i.p. on day 2 and day 3, TPTX rats
[7] = Day 4, after TPFA 500 mg/kg per day i.p. on day 2 and day 3, TPTX rats

O=C(O)P(=O)(O)O [TPFA, Phosphonoformic acid, trisodium salt hexahydrate]
32Pi-uptake 120 min (Na-Pi cotransporter; 1 mM TPFA, control 368 ± 7): 390 ± 74 pmoles Pi/mg protein/time | 32Pi-uptake 20 sec (Na-Pi cotransporter; 1 mM TPFA, control 824 ± 9): 299 ± 8 pmoles Pi/mg protein/time | 32Pi-uptake 20 sec (Na-Pi cotransporter; 5 mM TPFA): 97 ± 7 pmoles Pi/mg protein/time | 32Pi-uptake 120 min (Na-Pi cotransporter; 5 mM TPFA): 404 ± 12 pmoles Pi/mg protein/time | inhibition at 1000 µM (Na-Pi cotransporter; 20 s, 1 mM TPFA, read-out: percent decrease of 20 sec 32Pi-uptake relative to control value): 63.7% | inhibition at 5000 µM (Na-Pi cotransporter; 20 s, 5 mM TPFA, read-out: percent decrease of 20 sec 32Pi-uptake relative to control value): 88.2% | uptake of D-[3H]-glucose at 120 minutes [1]: 65±12 pmoles/mg protein | Calcium excretion [2, 4]: 0.3 ± 0.07 mmoles/mg creatinine | Potassium excretion [2, 4]: 7.3 ± 1.0 mmoles/mg creatinine | Sodium excretion [2, 4]: 6.8 ± 1.1 mmoles/mg creatinine | Phosphate excretion ([2]; Day 1 (baseline, before injections on day 2 and 3), experimental group, TPTX rats on low phosphate diet, relative to creatinine, mean ± SEM of 8-9 rats): 11.8 ± 6.0 | Phosphate excretion ([2]; Day 2, TPFA 500 mg/kg per day i.p. in two doses on day 2 and day 3, TPTX rats, low phosphate diet, relative to creatinine): 30.8 ± 6.6 | Calcium excretion [2, 5]: 0.2 ± 0.09 mmoles/mg creatinine | Potassium excretion [2, 5]: 7.6 ± 1.1 mmoles/mg creatinine | Sodium excretion [2, 5]: 8.0 ± 1.1 mmoles/mg creatinine | Phosphate excretion ([2]; Day 3, TPFA 500 mg/kg per day i.p. in two doses on day 2 and day 3, TPTX rats, significantly increased vs Day 1 (P < 0.025)): 122.1 ± 37.8 | Calcium excretion [2, 6]: 0.3 ± 0.2 mmoles/mg creatinine | Potassium excretion [2, 6]: 11.8 ± 3.9 mmoles/mg creatinine | Sodium excretion [2, 6]: 19.4 ± 11.6 mmoles/mg creatinine | Calcium excretion [2, 7]: 0.6 ± 0.5 mmoles/mg creatinine | Phosphate excretion [2, 7]: 79.8 ± 46.9 | Potassium excretion [2, 7]: 12.9 ± 5.3 mmoles/mg creatinine | Sodium excretion [2, 7]: 15.1 ± 7.0 mmoles/mg creatinine | urinary excretion of Pi (in words) ([2]; TPFA i.p. in two daily doses, TPTX rats on low phosphate diet, FIG. 3): severalfold increase | urinary excretion of Na+, K+ or calcium (in words) ([2]; TPFA i.p. in two daily doses, TPTX rats, same urine samples): did not change | effect on BaLM enzyme (Na-K)ATPase ((Na-K)ATPase): without inhibitory effect | toxic effects on bone in general toxicity studies [3]: not toxic effects on bone
